From patent US20240252474A1, “METHODS AND COMPOSITIONS COMPRISING A CARDIO-TOLERATED HDAC INHIBITOR” (HUYABIO International, LLC, priority 2023, published 2024)

Assay: Phase 1b safety and tolerability of HBI-8000 combined with nivolumab (DLTs, TEAEs)
Type: in vivo
Method: The present example, was a Phase Ib/2 open-label dose finding study for HBI-8000 (also referred to in the art as “chidamide” or “tucidinostat” and also referred to herein as a compound of formula I) in combination with nivolumab in patients with advanced solid tumors, including melanoma, RCC (renal cell carcinoma), and NSCLC (non-small cell lung cancer). This study was conducted in accordance with Good Clinical Practice guidelines and the Declaration of Helsinki and with assurance/approval from the US Department of Health and Human Services; the protocol was approved by the institutional review boards or ethics committees of all participating sites. All patients provided written informed consent to participate before enrollment. […]
HBI-8000 at three dose levels (20 mg, 30 mg, and 40 mg) given orally twice a week (BIW) were evaluated. Doses were taken approximate 30 minutes after a meal. The starting dose (20 mg) was selected based on pharmacokinetic profiles established for monotherapy in Japanese patients with T-cell lymphoma.
The decision to escalate the dose was based on the conventional 3+3 design and observed incidences of dose-limiting toxicities (DLTs). Each treatment cycle was defined as 28 days. […] Subjects experiencing DLT within the first two weeks after having received 100% of assigned dose of HBI-8000 are also evaluable for DLT. Unacceptable toxicities were defined as grade 3 or higher non-hematologic and hematologic toxicities with clinical complications. Unacceptable toxicities observed over the first 28 days following HBI-8000 administration were considered as DLTs. […] HBI-8000 administration continued until disease progression or unacceptable toxicity was observed. The efficacy of the combination was further evaluated in an expanded cohort of selected patient populations at RP2D based on an objective response rate according to Response Evaluation Criteria in Solid Tumors (RECIST) version 1.1 criteria, progression-free survival, and duration of responses.
Safety evaluations included physical examinations, vital signs, ECGs, ECOG performance status, and laboratory tests.
Statistical analyses of safety, tolerability, and anti-tumor activity were primarily descriptive in nature. Toxicities were tabulated by type and grade. The safety population included all patients who received ≥1 dose of HBI-8000 and nivolumab. Continuous variables were summarized using descriptive statistics and categorical variables were summarized with number and percentage at each category. Pharmacokinetic parameters were derived using noncompartmental methods with Phoenix® WinNonlin® Version 6.4 (Certara, L. P., Princeton, NJ, USA).

[1] = 20 mg HBI-8000 BIW + nivolumab, N = 3
[2] = 30 mg HBI-8000 BIW + nivolumab, N = 7
[3] = 40 mg HBI-8000 BIW + nivolumab, N = 7

Nc1cc(F)ccc1NC(=O)c1ccc(CNC(=O)/C=C/c2cccnc2)cc1 [HBI-8000, N-(2-amino-4-fluorophenyl)-4-[[[(2E)-1-oxo-3-(3-pyridinyl)-2-propen-1-yl]amino]methyl]benzamide]
2 (67) n (%): Diarrhoea, All, G < 3 [1] | Dyspnoea, All, G < 3 [1] | Fatigue, All, G < 3 [1] | Nausea, All, G < 3 [1]
5 (71) n (%): Fatigue, All, G < 3 [2] | Weight decreased, All, G < 3 [2]
2 n: TEAE resulting in discontinuation of HBI-8000 alone, number of subjects [1]
3 n: Any TEAE, number of subjects [1] | TEAE related to HBI-8000 & Nivolumab, number of subjects [1]
1 n: Any SAE, number of subjects [1] | TEAE resulting in discontinuation of HBI-8000 alone, number of subjects [2] | TEAE resulting in discontinuation of both HBI-8000 and Nivo, number of subjects [2]
1 (14) n (%): Anaemia, All, G ≥ 3 [2] | Atrial fibrillation, All, G < 3 [2] | Back pain, Related Both, Any G [2] | Contusion, All, G < 3 [2] | Contusion, Related Both, Any G [2] | Decreased appetite, All, G ≥ 3 [2] | Decreased appetite, Related HBI, Any G [2] | Dehydration, All, G ≥ 3 [2] | Dehydration, Related Both, Any G [2] | Dizziness, Related Both, Any G [2] | Dizziness, Related HBI, Any G [2] | Dyspnoea, Related Both, Any G [2] | Fall, Related Both, Any G [2] | Fatigue, All, G ≥ 3 [2] | Headache, Related Both, Any G [2] | Hypokalaemia, All, G ≥ 3 [2] | Hypokalaemia, Related Both, Any G [2] | Hypophosphataemia, Related HBI, Any G [2] | Hypotension, All, G < 3 [2] | Hypotension, Related Both, Any G [2] | Hypoxia, All, G < 3 [2] | Hypoxia, Related Both, Any G [2] | Nausea, Related HBI, Any G [2] | Neutrophil count decreased, All, G ≥ 3 [2] | Neutrophil count decreased, Related Both, Any G [2] | Neutrophil count decreased, Related HBI, Any G [2] | Oedema peripheral, All, G ≥ 3 [2] | Oedema peripheral, Related Both, Any G [2] | Oedema peripheral, Related HBI, Any G [2] | Platelet count decreased, Related HBI, Any G [2] | Pleural effusion, Related Both, Any G [2] | Vomiting, All, G < 3 [2] | Vomiting, Related Both, Any G [2] | White blood cell count decreased, All, G ≥ 3 [2] | Alanine aminotransferase increased, All, G < 3 [3] | Alanine aminotransferase increased, Related Both, Any G [3] | Anaemia, All, G ≥ 3 [3] | Anaemia, Related Both, Any G [3]
4 n: TEAE related to HBI-8000 alone, number of subjects [2]
2 (29) n (%): Alanine aminotransferase increased, All, G < 3 [2] | Alanine aminotransferase increased, Related Both, Any G [2] | Aspartate aminotransferase increased, All, G < 3 [2] | Aspartate aminotransferase increased, Related Both, Any G [2] | Dehydration, All, G < 3 [2] | Dizziness, All, G < 3 [2] | Fall, All, G < 3 [2] | Headache, All, G < 3 [2] | Hypocalcaemia, Related Both, Any G [2] | Hypokalaemia, All, G < 3 [2] | Hypophosphataemia, Related Both, Any G [2] | Hypotension, All, G ≥ 3 [2] | Lipase increased, Related Both, Any G [2] | Lymphocyte count decreased, Related Both, Any G [2] | Neutrophil count decreased, All, G < 3 [2] | Non-cardiac chest pain, All, G < 3 [2] | White blood cell count decreased, All, G < 3 [2] | White blood cell count decreased, Related Both, Any G [2] | White blood cell count decreased, Related HBI, Any G [2] | Anaemia, Related HBI, Any G [3]
0 n: SAE related to HBI-8000 & Nivolumab, number of subjects [1] | SAE related to HBI-8000 alone, number of subjects [1] | TEAE related to HBI-8000 alone, number of subjects [1] | TEAE resulting in discontinuation of both HBI-8000 and Nivo, number of subjects [1] | SAE related to HBI-8000 & Nivolumab, number of subjects [2] | SAE related to HBI-8000 alone, number of subjects [2]
5 n: TEAE related to HBI-8000 & Nivolumab, number of subjects [2]
1 (33) n (%): Alanine aminotransferase increased, All, G < 3 [1] | Alanine aminotransferase increased, Related Both, Any G [1] | Aspartate aminotransferase increased, All, G < 3 [1] | Aspartate aminotransferase increased, Related Both, Any G [1] | Decreased appetite, All, G < 3 [1] | Dehydration, All, G < 3 [1] | Diarrhoea, Related Both, Any G [1] | Dizziness, All, G < 3 [1] | Dyspnoea, Related Both, Any G [1] | Fatigue, All, G ≥ 3 [1] | Fatigue, Related Both, Any G [1] | Headache, All, G < 3 [1] | Hypocalcaemia, All, G < 3 [1] | Hypocalcaemia, All, G ≥ 3 [1] | Hypokalaemia, All, G ≥ 3 [1] | Nausea, All, G ≥ 3 [1] | Oedema peripheral, All, G < 3 [1] | Vomiting, All, G < 3 [1] | Weight decreased, All, G < 3 [1]
3 (43) n (%): Anaemia, Related Both, Any G [2] | Decreased appetite, Related Both, Any G [2] | Diarrhoea, All, G < 3 [2] | Diarrhoea, Related Both, Any G [2] | Hypocalcaemia, All, G < 3 [2] | Hypophosphataemia, All, G < 3 [2] | Hypophosphataemia, All, G ≥ 3 [2] | Hypoxia, All, G ≥ 3 [2] | Lipase increased, All, G < 3 [2] | Lymphocyte count decreased, All, G < 3 [2] | Lymphocyte count decreased, All, G ≥ 3 [2] | Nausea, All, G < 3 [2] | Platelet count decreased, Related Both, Any G [2] | Pleural effusion, All, G < 3 [2] | Weight decreased, Related Both, Any G [2]
6 n: Any SAE, number of subjects [2]
4 (57) n (%): Anaemia, All, G < 3 [2] | Back pain, All, G < 3 [2] | Decreased appetite, All, G < 3 [2] | Dyspnoea, All, G < 3 [2] | Fatigue, Related Both, Any G [2] | Lipase increased, All, G ≥ 3 [2] | Oedema peripheral, All, G < 3 [2] | Platelet count decreased, All, G < 3 [2] | Anaemia, All, G < 3 [3]
7 n: Any TEAE, number of subjects [2]
